According to patent US11441181B2, “miRNA-124 as a biomarker” (priority 2013, dated 2022):

Experiments:
ADA-M R5 HIV = test: Treatment of PBMCs infected with ADA-M R5 HIV strain; assay type: cell-based
Method: For that purpose, peripheral blood mononuclear cells (PBMCs) of five healthy donors have been isolated by centrifugation on a FICOLL gradient. The cells have then been cultivated at 37° C., 5% CO2 to a density of 1×10^6 cells/mL in RPMI Glutamax medium (Life Technologies Ref 61870-010) supplemented with 10% fetal calf serum (FCS) (Thermo Fischer Ref SV30160.03) 1000 U/mL of IL2 (Peprotech Ref 200-02) and […] of PHA (Roche ref 1249738). Three days later, cells have been pooled and resuspended to a density of 1×10^6 cells/mL in RPMI Glutamax medium supplemented with 10% fetal calf serum (FCS) 1000 U/mL of IL-2 and distributed in 12 wells plates (Falcon Ref 353043) with 1.2 mL/well (4 wells per condition).
HIV-1 infection has been performed with 1 ng of Ada-M R5 HIV strain/well. Cells were treated for 6 days with 1.2 mL/well of 60 μM solution of 8-chloro-N-[4-(trifluoromethoxy)phenyl]quinolin-2-amine or with 0.12% DMSO (Sigma Ref D4818 as negative control).

[1] = system: HIV-1 and HIV-2 T cell-tropic laboratory strains as well as clinical isolates of different subtypes; details: HIV-1 and HIV-2 laboratory strains and clinical isolates; cited from earlier work

Q: Which results are given for `FC(F)(F)Oc1ccc(Nc2ccc3cccc(Cl)c3n2)cc1` [8-chloro-N-[4-(trifluoromethoxy)phenyl]quinolin-2-amine]?
A: effect on viruses in infected PBMCs (ADA-M R5 HIV): removal of the viruses; inhibition of replication in PBMC, active concentrations [1]: nM concentrations range
